Values quoted from earlier work, collected in patent US10052384B2, “Liquid antiseptic compositions containing iodine and a sugar and/or sugar alcohol” (3M INNOVATIVE PROPERTIES COMPANY, priority 2007, dated 2018).

Details: 25° C.

II [elemental iodine]
Solubility in water: 0.03 wt-%
